This is an account of results in BindingDB's records for doi:10.1016/s0960-894x(01)00044-0 (Novartis Institute For Medical Sciences, 2001).

In general, pIC50 refers to −log10 of the IC50, conventionally taken in molar units. Low readings indicate a large IC50, high ones a small IC50.

For one experiment, the target named is Substance-P receptor (Cavia porcellus, UniProt P30547). Kind of experiment: ChEBML_205410. From the text: In vitro binding affinity against Tachykinin receptor 1 in guinea pig ileum using organ bath assay
Chain of Substance-P receptor (P30547 whole entry): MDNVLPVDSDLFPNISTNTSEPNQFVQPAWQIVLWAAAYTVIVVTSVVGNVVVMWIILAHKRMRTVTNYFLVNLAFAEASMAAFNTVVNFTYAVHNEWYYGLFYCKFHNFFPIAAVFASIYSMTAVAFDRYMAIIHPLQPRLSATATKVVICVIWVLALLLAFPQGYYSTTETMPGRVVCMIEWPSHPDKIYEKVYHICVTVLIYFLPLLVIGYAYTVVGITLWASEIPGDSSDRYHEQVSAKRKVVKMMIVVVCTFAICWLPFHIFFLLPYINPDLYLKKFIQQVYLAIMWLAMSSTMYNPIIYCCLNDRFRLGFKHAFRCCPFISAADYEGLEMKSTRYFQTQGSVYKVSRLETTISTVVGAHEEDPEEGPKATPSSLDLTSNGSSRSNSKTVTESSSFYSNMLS
Experiment [1] can be described thus: In vitro binding affinity against Tachykinin receptor 1 in rabbit whole brain membranes using [3H][Sar9Met(O2)]-SP binding assay.

pIC50: −log10 of the molar value.

Regarding `CSCCNS(=O)(=O)c1ccc(NNC(=S)N2CCCC2C(=O)NCc2ccccc2)c([N+](=O)[O-])c1` (configuration not stated), the negative logarithm of the IC50 (pIC50) against Substance-P receptor was below 4.00. In experiment [1], `CSCCNS(=O)(=O)c1ccc(NNC(=S)N2CCCC2C(=O)NC(c2ccccc2)c2ccccc2)c([N+](=O)[O-])c1` (configuration not stated) showed a negative logarithm of the IC50 (pIC50) below 4.30.
